Measurements published in publication PMC5373622, “Screening for AMPA receptor auxiliary subunit specific modulators” (PLoS ONE, 2017).
Several values for one entry are separate records, joined by “and”; a condition that tells them apart may be missing. Identical values can stand only once. Like-named read-outs stand apart in the source and are kept apart here.

Columns and labels:
GluA2flip(Q) (A2Q cells) = target: T1, GluA2flip(Q) (A2Q cells) (Homo sapiens, UniProt P42262); assay: Calcium flux (Fluo-8) compound CRC assay on A2Q cells; assay type: cell-based; settings: CRC from GLUslope1; 1 mM glutamate; PAM; read-out: EC50 Ca2+ Sensing, A2Q
T1 construct: FLAG (C); expressed in transfected cells

GluA2 alone = settings: published value; cited from earlier work
GluA1-stargazin = system: GluA1-stargazin; set-up: method as in PMID 16785437; settings: published value; cited from earlier work
[1] = target: GluA2flip(R)-CNIH3 (A2R-C3 TetON HEK293 cells) (Homo sapiens, UniProt P42262, Q607R); assay: VSD assay (counter-screen, CRC) on A2R-C3 cells; settings: for CMPDmaxmin: max-min 8-100 s; for BaselineReturn: max 250-255 s minus min 0-5 s; for Glumaxmin: max-min normalized value 301-380 s
Description: Cell lines used in the VSD assays were TetON HEK293 cells. This was the parental cell line for all stable cell lines created. We used GluA2flip(R) TetON HEK cell clone #4 that doxycycline (DOX) dependently expresses GluA2flip(R) (A2R). The A2R cells were used as the base cell line to derive cell lines that co-express auxiliary subunits.
(§1) Greiner 384-pp round-bottom plates containing glutamate for the second add were dispensed by hand using a multi-channel pipet at 5X final concentration. A2R-stg cells were plated in 384-well BD PureCoat amine-coated plates (Corning Life Sciences) at 16k cells/well in DMEM medium supplemented with 10% heat-inactivated FBS and 100U/mL PenStrep antibiotic. […] Cells were incubated overnight (O/N) and washed 4 times in HBSS containing 20 mM HEPES, pH 7.4, on an ELX405CW liquid aspirator and dispenser (BioTek). Buffer was left in the wells and an equal amount of 2X FLIPR dye solution was added and incubated on the cells at room temperature for 45 min. Fluorescence signal was collected at 1 Hz using Ex. 480±20 nm/Em. 540±40 nm on a Hamamatsu Functional Drug Screening System 6000 (FDSS). Baseline signal was collected for 10 seconds followed by addition of 10 μl of 5X compound for a final concentration of 10 μM.
This assay was carried out in the same way as the VSD screening assay except a 10-point concentration curve, from 40 μM to 10 nM, was plated in triplicate for each compound on a single 384-well plate. Data were summarized by plotting them as %max GLUslope against log [compound] that was fit to a four-parameter logistical model. %max GLUslope is defined as a normalized GLUslope expressed as a percentage of the mean maximum GLUslope, defined as 100, where background mean vehicle control (VHLslope) were subtracted from both values on a per plate basis. Thus, %max GLU slope = (GLUslope-mean VHLslope/mean maxGLUslope-mean VHLslope).

[2] = target: GluA2flip(Q)-CNIH3 (A2Q-C3 cells) (Homo sapiens, UniProt P42262); assay: Calcium flux (Fluo-8) compound CRC assay on A2Q-C3 cells
Description: (§2) Cell lines used in the calcium flux assay were GluA2flip(Q)-FLAG + GSG1L-1D4 pTREt-Va dual expression in TetON HEK cell clone #20 (A2Q-GSG), GluA2flip(Q)-FLAG + CNIH3-1D4 pTREt-Va dual expression in TetON HEK cell clone #8 (A2Q-C3), GluA2flip(Q)-FLAG pTREt-Va in TetON HEK cell clone #5 (A2Q), and tethered GluA2flip(Q)-FLAG-stargazin [28] in pTREt-Va dual expression in TetON HEK cell clone #13 (A2Q-stg) (Summarized in Table 1).
(§3) Compounds that were selected as hits using the VSD assay were subsequently screened against the calcium permeable A2Q-stg and A2Q-C3 cell lines in a glutamate potency fold-shift assay using the calcium sensing dye Fluo-8 (AAT Bioquest cat #21080). This assay is used to measure how pretreatment with compounds shifts the EC50 of glutamate on A2Q-stg and A2Q-C3 cells. 30 μM of each compound was pre-incubated with the cells for 120 secs and then an 11-point glutamate CRC from 4 mM to 10 pM was applied to the cells for 180 sec. […] Greiner 384-pp round-bottom plates containing glutamate solutions were dispensed by hand using a multi-channel pipet at 5X final concentration. […] Sodium butyrate and DOX were added to the cells at 1 mM and 5 μg/mL, respectively, 24 hours before screening. A2Q-stg cells were induced with 10 μg/mL DOX. Cells were incubated O/N and washed 4 times in low calcium buffer on an ELX405CW liquid aspirator and dispenser (BioTek). Buffer was left in the wells and an equal amount of 4.6 μM (2X) Fluo-8 (AAT Bioquest cat #21080) solution with 2.5 mM probenecid was added and incubated on the cells at room temperature for 40 minutes. Probenecid was added to block dye efflux from the cells [29]. Dye was washed off with low calcium buffer using the ELX405CW (BioTek) and plates were immediately inserted into the FDSS (Hamamatsu). Fluorescence signal was collected at 1 Hz using Ex. 480±20 nm/Em. 540±40 nm. Baseline signal was collected for 10 seconds followed by addition of 20 μl of 2X compound for a final concentration of 30 μM. After 290 seconds, 10 μl of a 5X glutamate solution in high calcium buffer (10 mM HEPES, pH 7.4, 140 mM NaCl, 5 mM KCl, 1 mM MgCl2, 9 mM CaCl2, and 10 mM glucose) was added for 180 seconds.
(§4) These compound CRCs were applied to the cells 2 minutes before a 1mM glutamate stimulation. […] Normalized FDSS traces were curve fit to CRCs using the initial GLUslope (GLUslope1) in a 3–6 sec window after glutamate application. CRCs were also plotted for the traces’ area under the curve (AUC) in the GLUmaxmin window. […] Compounds were plotted as %max GLUslope against log [compound] and fit to a four-parameter logistical model as in the VSD.
(§5) Cells were loaded with Fluo-8 and excess dye was washed out. After 120 secs of pre-incubation with compound at concentrations ranging from 30 μM to 30 nM (Fig 4Bi), 1 mM glutamate was added (Fig 4Bii). In the calcium assay, 250 μM was used as the maxGLU dose because the GLUslope1 values decreased at higher concentrations of glutamate, making it the dose with the maximal GLUslope1 response. […] We measured GLUslope in three consecutive time windows, referred to as GLUslope1-3, because three phases were clearly detectable (Fig 4C). The final CRC curves were calculated from GLUslope1, obtained from the first 3–6 sec window.
(§6) The final compound CRC curves were calculated from GLUslope1. […] The AUC measures the accumulation of calcium instead of gating and sometimes produced a CRC fit when GLUslope1 could not derive an EC50 value.

[3] = target: GluA2flip(Q)-GSG1L (A2Q-GSG cells) (Homo sapiens, UniProt P42262); assay: Calcium flux (Fluo-8) compound CRC assay on A2Q-GSG cells
Description: as §2, §3, §4, §5, §6

[4] = target: GluA2flip(R)-stargazin (A2R-stg TetON HEK293 cells) (Homo sapiens, UniProt P42262, Q607R); assay: Voltage-sensitive dye (VSD) assay (primary screen, counter-screen, CRC) on A2R-stg cells; settings: for CMPDmaxmin: max-min 8-100 s, only compound present; for BaselineReturn: max 250-255 s minus min 0-5 s; for Glumaxmin: max-min normalized value 301-380 s; for Glumaxmin / GluSlope: compound and glutamate present; for GluSlope: slope 310-315 s
Sequence of GluA2flip(R)-stargazin (A2R-stg TetON HEK293 cells) (P42262 25-883 isoform P42262-2 Q607R limits assumed): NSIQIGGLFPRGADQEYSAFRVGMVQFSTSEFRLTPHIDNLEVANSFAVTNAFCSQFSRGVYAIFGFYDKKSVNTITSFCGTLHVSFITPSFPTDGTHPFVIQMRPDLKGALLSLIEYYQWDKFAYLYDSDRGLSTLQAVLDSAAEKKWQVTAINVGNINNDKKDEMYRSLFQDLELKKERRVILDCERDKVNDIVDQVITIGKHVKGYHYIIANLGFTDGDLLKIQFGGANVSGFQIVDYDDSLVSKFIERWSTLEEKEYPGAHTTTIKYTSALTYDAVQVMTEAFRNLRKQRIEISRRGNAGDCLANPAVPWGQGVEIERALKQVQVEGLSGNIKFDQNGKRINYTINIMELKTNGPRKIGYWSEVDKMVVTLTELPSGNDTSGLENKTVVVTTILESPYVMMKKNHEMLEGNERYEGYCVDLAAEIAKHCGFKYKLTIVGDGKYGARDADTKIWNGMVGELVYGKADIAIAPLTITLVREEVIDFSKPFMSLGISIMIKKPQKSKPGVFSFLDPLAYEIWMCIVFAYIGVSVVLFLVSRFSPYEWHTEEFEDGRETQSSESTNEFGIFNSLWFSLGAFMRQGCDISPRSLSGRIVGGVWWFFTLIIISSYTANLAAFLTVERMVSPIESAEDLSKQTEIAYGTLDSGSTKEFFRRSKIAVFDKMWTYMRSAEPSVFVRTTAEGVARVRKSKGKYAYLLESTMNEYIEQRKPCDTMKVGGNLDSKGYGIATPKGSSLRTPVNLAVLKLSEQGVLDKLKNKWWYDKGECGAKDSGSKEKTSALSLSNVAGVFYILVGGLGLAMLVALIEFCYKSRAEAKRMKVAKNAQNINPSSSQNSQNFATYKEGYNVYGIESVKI
Sequence of GluA2flip(R)-stargazin (A2R-stg TetON HEK293 cells) (Q9Y698 whole entry partner): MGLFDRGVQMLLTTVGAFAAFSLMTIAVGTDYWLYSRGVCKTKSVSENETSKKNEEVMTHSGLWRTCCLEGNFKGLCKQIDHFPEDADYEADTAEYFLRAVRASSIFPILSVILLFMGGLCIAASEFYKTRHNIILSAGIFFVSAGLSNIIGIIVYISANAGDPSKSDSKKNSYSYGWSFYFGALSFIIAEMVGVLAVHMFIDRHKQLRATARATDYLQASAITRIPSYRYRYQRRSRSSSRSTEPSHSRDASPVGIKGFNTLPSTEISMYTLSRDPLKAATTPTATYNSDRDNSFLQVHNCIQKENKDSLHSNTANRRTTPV
Protocol: Cell lines used in the VSD assays were TetON HEK293 cells. […] We used GluA2flip(R) TetON HEK cell clone #4 that doxycycline (DOX) dependently expresses GluA2flip(R) (A2R). The A2R cells were used as the base cell line to derive cell lines that co-express auxiliary subunits.
as §1
Hits were selected from this initial screen using 4 different criteria, which we termed CMPDslope, CMPDmaxmin, GLUslope, and GLUmaxmin. […] GLUslope is the fitted slope of the increase in fluorescence within 10 sec after adding glutamate. GLUmaxmin is the difference in the minimum and maximum value in fluorescence signal reached in the 100 sec window after adding glutamate. Compounds were classified as hits if they differed by 3 standard deviations of the mean for each criterion. Tier 1 hits were classified as those that hit in the GLUslope, GLUmaxmin, and CMPDmaxmin windows. Tier 2 hits were classified as compounds that hit in the GLUslope window and either the GLUmaxmin or CMPDmaxmin window. Tier 3 hits were classified as those that hit in only the GLUslope or the GLUmaxmin window. Tier 4 hits were classified as compounds that hit only in the CMPD window, CMPDslope or CMPDmaxmin. Hit selection was further narrowed using the criterion that their signal must return to near baseline values before entering the glutamate add window.
VSD concentration response curves (CRCs): After the above counter-screens, compounds that remained positive were moved forward to collect complete CRCs for A2R-stg and A2R-C3 cell lines. This assay was carried out in the same way as the VSD screening assay except a 10-point concentration curve, from 40 μM to 10 nM, was plated in triplicate for each compound on a single 384-well plate. Data were summarized by plotting them as %max GLUslope against log [compound] that was fit to a four-parameter logistical model. %max GLUslope is defined as a normalized GLUslope expressed as a percentage of the mean maximum GLUslope, defined as 100, where background mean vehicle control (VHLslope) were subtracted from both values on a per plate basis. Thus, %max GLU slope = (GLUslope-mean VHLslope/mean maxGLUslope-mean VHLslope).

Sequence of GluA2flip(R)-CNIH3 (A2R-C3 TetON HEK293 cells) (P42262 25-883 isoform P42262-2 Q607R limits assumed): as the sequence (P42262 25-883 isoform P42262-2 Q607R limits assumed) above
Sequence of GluA2flip(R)-CNIH3 (A2R-C3 TetON HEK293 cells) (Q8TBE1 whole entry partner): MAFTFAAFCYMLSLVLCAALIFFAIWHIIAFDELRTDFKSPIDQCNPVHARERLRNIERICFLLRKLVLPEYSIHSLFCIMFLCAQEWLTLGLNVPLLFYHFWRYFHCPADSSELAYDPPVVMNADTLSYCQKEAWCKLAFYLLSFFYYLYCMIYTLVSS
T1 sequence (P42262 25-883 isoform P42262-2 limits assumed): as the sequence (P42262 25-883 isoform P42262-2 Q607R limits assumed) above, with R583Q counted along it
Sequence of GluA2flip(Q)-GSG1L (A2Q-GSG cells) (P42262 25-883 isoform P42262-2 limits assumed): as the sequence (P42262 25-883 isoform P42262-2 Q607R limits assumed) above, with R583Q counted along it
Sequence of GluA2flip(Q)-GSG1L (A2Q-GSG cells) (Q6UXU4 whole entry partner): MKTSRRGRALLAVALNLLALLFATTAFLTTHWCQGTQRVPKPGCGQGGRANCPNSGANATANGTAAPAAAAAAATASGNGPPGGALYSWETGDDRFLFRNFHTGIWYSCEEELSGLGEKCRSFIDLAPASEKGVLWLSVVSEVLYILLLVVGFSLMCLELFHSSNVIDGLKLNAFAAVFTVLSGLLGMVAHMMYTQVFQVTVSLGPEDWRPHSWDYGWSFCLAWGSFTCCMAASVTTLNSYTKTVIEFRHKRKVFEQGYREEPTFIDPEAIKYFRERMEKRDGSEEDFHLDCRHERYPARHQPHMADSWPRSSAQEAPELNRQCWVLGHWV
Sequence of GluA2flip(Q)-CNIH3 (A2Q-C3 cells) (P42262 25-883 isoform P42262-2 limits assumed): as the sequence (P42262 25-883 isoform P42262-2 Q607R limits assumed) above, with R583Q counted along it
Sequence of GluA2flip(Q)-CNIH3 (A2Q-C3 cells) (Q8TBE1 whole entry partner): as the sequence (Q8TBE1 whole entry partner) above

NS(=O)(=O)c1cc2c(cc1Cl)NC(C1CC3C=CC1C3)NS2(=O)=O (stereo not shown) [CTZ, cyclothiazide]
EC50 (GluA2flip(Q) (A2Q cells)): 1900 nM
EC50 (GluA2 alone): 2200 nM
EC50 (GluA1-stargazin): 2000 nM
EC50 [1]: 800 nM
CMPDmaxmin ([1]; 1.95313e-6 M ligand, compound only, per well): 0.02498 and 0.01841 and 0.01791 and 0.02774
CMPDmaxmin ([1]; 3.90625e-6 M ligand, compound only, per well): 0.02327 and 0.02311 and 0.02554 and 0.02077
GluSlope ([1]; 3.90625e-6 M ligand, slope of normalized value 310-315 s, compound+glutamate, per well): 3.655e-6 and 4.544e-6 and 4.211e-6 and 5.143e-6 and 7.279e-6 and 5.643e-6
BaselineReturn ([1]; 7.8125e-6 M ligand, per well): 0.02655 and 0.02476
CMPDmaxmin ([1]; 7.8125e-6 M ligand, compound only, per well): 0.03133 and 0.03273
Glumaxmin ([1]; 7.8125e-6 M ligand, compound+glutamate, per well): 0.1051 and 0.1531
GluSlope ([1]; 7.8125e-6 M ligand, slope of normalized value 310-315 s, compound+glutamate, per well): 1.084e-5 and 1.388e-5
BaselineReturn ([1]; 7.8125e-6 M, per well): 0.01945 and 0.0284 and 0.03375 and 0.02763
CMPDmaxmin ([1]; 7.8125e-6 M, only compound present, per well): 0.02499 and 0.03299 and 0.03909 and 0.04405
Glumaxmin ([1]; 7.8125e-6 M, compound and glutamate present, per well): 0.1519 and 0.1861 and 0.161 and 0.1533
GluSlope ([1]; 7.8125e-6 M, slope 310-315 s, compound and glutamate present, per well): 1.427e-5 and 1.51e-5 and 1.46e-5 and 1.177e-5
BaselineReturn ([1]; 1.5625e-5 M, per well): 0.04439 and 0.04696 and 0.04628 and 0.04829 and 0.04336 and 0.0478
CMPDmaxmin ([1]; 1.5625e-5 M, only compound present, per well): 0.04028 and 0.05159 and 0.051 and 0.04736 and 0.04942 and 0.04289
Glumaxmin ([1]; 1.5625e-5 M, compound and glutamate present, per well): 0.222 and 0.2669 and 0.2275
GluSlope ([1]; 1.5625e-5 M, slope 310-315 s, compound and glutamate present, per well): 1.982e-5 and 1.758e-5 and 1.735e-5 and 2.35e-5 and 2.196e-5 and 2.323e-5
Glumaxmin ([1]; 3.125e-5 M, compound and glutamate present, per well): 0.3443 and 0.3512 and 0.3188 and 0.318 and 0.3671
GluSlope ([1]; 3.125e-5 M, slope 310-315 s, compound and glutamate present, per well): 2.5659e-5 and 2.5089e-5 and 2.398e-5 and 2.252e-5 and 2.824e-5 and 2.481e-5
BaselineReturn ([1]; 6.25e-5 M, per well): 0.06773 and 0.07885 and 0.0633 and 0.06912 and 0.08153 and 0.08744
CMPDmaxmin ([1]; 6.25e-5 M, only compound present, per well): 0.07201 and 0.07489 and 0.07237 and 0.06864 and 0.0824 and 0.08958
Glumaxmin ([1]; 6.25e-5 M, compound and glutamate present, per well): 0.3694 and 0.3861 and 0.381 and 0.3994 and 0.4282 and 0.4362
GluSlope ([1]; 6.25e-5 M, slope 310-315 s, compound and glutamate present, per well): 2.565e-5 and 2.689e-5 and 2.837e-5 and 2.784e-5 and 3.091e-5 and 2.855e-5
CMPDmaxmin ([1]; 0.00025 M, only compound present, per well): 0.06294 and 0.04965 and 0.05528 and 0.07959 and 0.04247 and 0.05305
Glumaxmin ([1]; 0.0005 M, compound and glutamate present, per well): 0.4488 and 0.457 and 0.483 and 0.5352 and 0.5162 and 0.5252
GluSlope ([1]; 0.0005 M, slope 310-315 s, compound and glutamate present, per well): 2.6241e-5 and 2.3366e-5 and 3.012e-5 and 2.914e-5 and 2.692e-5 and 2.648e-5
activity at 250 µM ([1]; HEK293, read-out: AVE %MAXCMPDslope, 0.00025 M, average for the concentration): 20.3%
activity at 500 µM ([1]; HEK293, read-out: AVE %MAXCMPDslope, 0.0005 M, average for the concentration): 20.7%
activity at […] ([1]; HEK293, read-out: AVE %MAXCMPDslope, […], average for the concentration): 19.2%
activity at 250 µM ([1]; HEK293, read-out: AVE %MAXslope, 0.00025 M, average for the concentration): 68.1%
activity at […] ([1]; HEK293, read-out: AVE %MAXslope, […], average for the concentration): 63.8%
activity at 500 µM ([1]; HEK293, read-out: pctMAX, 0.0005 M, Glumaxmin vs vhl and glutamate controls, per well): 57.7%
activity at 500 µM ([1]; HEK293, read-out: pctMAXslope, 0.0005 M, GluSlope vs vhl and glutamate controls, per well): 67.5%
activity at 250 µM ([1]; HEK293, read-out: pctMAXslopeCMPD, 0.00025 M, CMPDSlope vs vhl and glutamate controls, per well): 18.6%
activity at 500 µM ([1]; HEK293, read-out: pctMAXslopeCMPD, 0.0005 M, CMPDSlope vs vhl and glutamate controls, per well): 18.6%
activity at […] ([1]; HEK293, read-out: pctMAXslopeCMPD, […], CMPDSlope vs vhl and glutamate controls, per well): 19.3%
EC50 [2]: 400 nM
EC50 [3]: 1600 nM
EC50 [4]: 900 nM
CMPDmaxmin ([4]; 1.95313e-6 M): 0.01995 and 0.02197 and 0.02343 and 0.0204 and 0.02099
BaselineReturn ([4]; 3.90625e-6 M): 0.01694 and 0.02593 and 0.02261 and 0.02289 and 0.01533 and 0.01439
CMPDmaxmin ([4]; 3.90625e-6 M): 0.02654 and 0.02518 and 0.0211 and 0.01857
BaselineReturn ([4]; 7.8125e-6 M): 0.02783 and 0.02662 and 0.0353 and 0.03259 and 0.02886 and 0.02588
CMPDmaxmin ([4]; 7.8125e-6 M): 0.0268 and 0.03115 and 0.03117 and 0.04146 and 0.02344 and 0.0309
Glumaxmin ([4]; 7.8125e-6 M): 0.1527 and 0.1804 and 0.2045 and 0.2207
GluSlope ([4]; 7.8125e-6 M): 1.356e-5 and 1.3e-5 and 1.265e-5 and 1.674e-5 and 1.689e-5 and 1.461e-5
CMPDmaxmin ([4]; 1.5625e-5 M): 0.03354 and 0.03952 and 0.05587 and 0.04086 and 0.03876 and 0.03573
Glumaxmin ([4]; 1.5625e-5 M): 0.2558 and 0.3432 and 0.3162 and 0.3337
GluSlope ([4]; 1.5625e-5 M): 1.634e-5 and 1.622e-5 and 1.53e-5 and 2.233e-5 and 2.059e-5 and 2.204e-5
BaselineReturn ([4]; 3.125e-5 M): 0.0693 and 0.04071 and 0.04552 and 0.04058 and 0.03606 and 0.0477
CMPDmaxmin ([4]; 3.125e-5 M): 0.05834 and 0.04067 and 0.04238 and 0.04539 and 0.03379 and 0.04106
Glumaxmin ([4]; 3.125e-5 M): 0.4026 and 0.4044 and 0.3672 and 0.4286 and 0.4072
CMPDmaxmin ([4]; 6.25e-5 M): 0.04424 and 0.05275 and 0.04401 and 0.03573 and 0.03351 and 0.03343
Glumaxmin ([4]; 6.25e-5 M): 0.4053 and 0.4064 and 0.4608 and 0.469 and 0.4686 and 0.4908
GluSlope ([4]; 6.25e-5 M): 1.974e-5 and 2.267e-5 and 2.556e-5 and 2.473e-5 and 2.4778e-5 and 2.559e-5
CMPDmaxmin ([4]; 0.00025 M): 0.0338 and 0.0291 and 0.02948 and 0.02774 and 0.02398 and 0.02262
Glumaxmin ([4]; 0.00025 M): 0.4981 and 0.5117 and 0.5708 and 0.5208 and 0.5482 and 0.5112
GluSlope ([4]; 0.00025 M): 2.302e-5 and 2.432e-5 and 2.511e-5 and 2.509e-5 and 2.863e-5 and 2.554e-5
CMPDmaxmin ([4]; 0.0005 M): 0.04815 and 0.05143 and 0.02949 and 0.04218 and 0.05076 and 0.0521
Glumaxmin ([4]; 0.0005 M): 0.4797 and 0.5039 and 0.3566 and 0.5216 and 0.4987 and 0.5435
GluSlope ([4]; 0.0005 M): 2.0723e-5 and 2.479e-5 and 1.376e-5 and 2.232e-5 and 2.492e-5 and 2.656e-5
activity at 250 µM ([4]; HEK293, read-out: AVE %MAXCMPDslope, 0.00025 M, average of wells): 28.2%
activity at 500 µM ([4]; HEK293, read-out: AVE %MAXCMPDslope, 0.0005 M, average of wells): 27.5%
activity at […] ([4]; HEK293, read-out: AVE %MAXCMPDslope, […], average of wells): 29%
activity at 250 µM ([4]; HEK293, read-out: AVE %MAXslope, 0.00025 M, average of wells): 71.3%
activity at 500 µM ([4]; HEK293, read-out: AVE %MAXslope, 0.0005 M, average of wells): 65.9%
activity at […] ([4]; HEK293, read-out: AVE %MAXslope, […], average of wells): 68.4%
activity at 250 µM ([4]; HEK293, read-out: pctMAX, 0.00025 M, Glumaxmin as percentage MAX (vhl and glutamate controls)): 55.4%
activity at […] ([4]; HEK293, read-out: pctMAX, […], Glumaxmin as percentage MAX (vhl and glutamate controls)): 44.5%
activity at 250 µM ([4]; HEK293, read-out: pctMAXslope, 0.00025 M, GluSlope as percentage MAX): 67.4%
activity at […] ([4]; HEK293, read-out: pctMAXslope, […], GluSlope as percentage MAX): 64.2%
activity at 250 µM ([4]; HEK293, read-out: pctMAXslopeCMPD, 0.00025 M, CMPDSlope as percentage MAX): 27.7%
activity at 500 µM ([4]; HEK293, read-out: pctMAXslopeCMPD, 0.0005 M, CMPDSlope as percentage MAX): 26.2%
activity at […] ([4]; HEK293, read-out: pctMAXslopeCMPD, […], CMPDSlope as percentage MAX): 28.9%
